Reference: patent US8828971B2, “Galactose-pronged carbohydrate compounds for the treatment of diabetic nephropathy and associated disorders” (Galectin Therapeutics, Inc., priority 2012, dated 2014)

How the values were obtained:
[1] = tested on: mouse model of diabetic nephropathy; assay: PAS stained kidney sections, mouse model of diabetic nephropathy; format: in vivo; conditions: diabetic mice, IV 40 mg/kg three times weekly for four weeks
Experimental: Shown are low (×200) and high magnification (×400) pictures of the three experimental groups: 1) Normal mouse; 2) Diabetic mice treated with vehicle (phosphate buffered saline, treatment control); and 3) Diabetic mice treated with GR-MD-02/001 B (IV 40 mg/kg). The arrows point to a glomerulus.
(§1) The experimental model used in this example is the mouse in which diabetes was induced and a high fat diet was administered. Diabetes was induced immediately following birth with a single injection of streptozotocin. Four weeks later the mice were started on a high fat diet.
(§2) Diabetic mice were treated either with vehicle (phosphate buffered saline) or GR-MD-02/001B given intravenously in a dose of 40 mg/kg three times weekly for four weeks total. There were eight (8) mice in each group. Two normal mice were also utilized as a comparison group.
The diabetic mice had clear histological evidence of diabetic nephropathy as shown in pictures of PAS stained kidney sections in FIG. 1. […] In the vehicle treated control animals there is a clear increase in mesangial basement membrane material (the pink extracellular matrix) over the normal animals.

[2] = tested on: mouse model of diabetic nephropathy; assay: Sirius red stained kidney sections with digital morphometry, mouse model of diabetic nephropathy; format: in vivo; conditions: diabetic mice, IV 40 mg/kg three times weekly for four weeks; for Sirius red staining (interstitial collagen between renal tubules), histological appearance: FIG. 2, 40 mg/kg
Experimental: Shown are low (×50) and high magnification (×200) pictures of the three experimental groups: 1) Normal mouse; 2) Diabetic mice treated with vehicle (phosphate buffered saline, treatment control); and 3) Diabetic mice treated with GR-MD-02/001 B (IV 40 mg/kg). The arrows point to a stained strand that indicates the presence of collagen type.
Statistical comparisons of the percent Sirius red staining shown for the three experimental groups: 1) Normal mouse; 2) Diabetic mice treated with vehicle (phosphate buffered saline, treatment control); and 3) Diabetic mice treated with GR-MD-02/001 B (IV 40 mg/kg).
as §1, §2
Sirius red reagent is used as a stain to evaluate the increase in extracellular matrix material in the interstitium between tubular cells. Minimal red staining is seen in the normal animals. However, there is an increase in staining seen in the vehicle treated control animals.
Thirty two (32) separate slides from each group were blindly evaluated by quantitative digital morphometry for the percent staining with Sirius red.

In the case of “galactoarabino-rhamnogalacturonate [GR-MD-02/001B]”, the “Mesangial extracellular matrix material (PAS stain, glomerulus) compared to vehicle treated control animals” value ([1]; FIG. 1) is reported as “marked decrease”, the “Mesangial extracellular matrix material (PAS stain, glomerulus) compared to vehicle treated control animals” value ([1]; FIG. 1, listed as GR-MD02/001B) is reported as “reduced the mesangial expansion of extracellular matrix” and the “Percent Sirius red staining by quantitative digital morphometry compared to vehicle treated controls” value ([2]; 32 slides per group, levels nearly the same as normal mice, FIG. 3) is reported as “statistically significant decrease”. The “Sirius red staining (interstitial collagen between renal tubules), histological appearance” value [2] was “marked reduction” and the “Sirius red staining (interstitial collagen between renal tubules), histological appearance” value ([2]; listed as GR-MD02/001B) was “reduced the deposition of matrix”.
